The target in test [1] is T1, human metabotropic glutamic acid receptor 1a (mGluR1a) (Homo sapiens, UniProt Q13255).
T1 construct: expressed in transfected cells
The experiment in a line: mGluR1-inhibiting action: calcium concentration in CHO cells expressing mGluR1a (FLIPR). The following applies: suppression of rise in calcium raised by 10 μM glutamic acid, test compound added 5 minutes before agonist. Type of test: cell-based. The method, then: cDNA of human metabotropic glutamic acid receptor 1a (mGluR1a) was transfected to CHO cells using Lipofectamine (manufactured by Gibco BRL) to give a strain which stably expresses mGluR1a. The CHO cells in which mGluR1a was expressed were incubated in a DMEM medium containing 10% of dialyzed fetal bovine serum, 1% of proline, 100 units/ml of penicillin, 0.1 mg/ml of streptomycin sulfate and 2 mM of glutamine.
On the day before the measurement, 4 μM Fluo-3 was incubated in a CO2 incubator for 1 hour to the CHO cells where mGluR1a was expressed being plated with 50,000 cells per well of a 96-well black plate (View Plate manufactured by Packard). After that, the cells were washed for four times with an HBSS solution containing 20 mM of HEPES and 2.5 mM of Probenecid and then calcium concentration in the cells was measured using a Fluorescence Imaging Plate Reader (FLIPR, manufactured by Molecular Device). Incidentally, the test compound and glutamic acid were prepared using an HBSS solution containing 20 mM HEPES and 2.5 mM Probenecid. The test compound was added before 5 minutes of the stimulation with an agonist and, with regard to the agonist, 10 μM glutamic acid was used.

Test [2] concerns Male ICR (CD-1) mice. The experiment in a line: Suppressive action on autonomic momentum (behavior quantity) in mice increased by methamphetamine. Type of test: in vivo. The following applies: compound 10 mg/kg intraperitoneally 30 minutes before methamphetamine 2 mg/kg subcutaneous, behavior quantity during 60 minutes. The method, then:
Suppressive Action of the Compound to Autonomic Momentum in Mice which Increases by Methamphetamine
Male ICR (CD-1) mice (20 to 40 g) were used and behavior quantity was measured using a behavior quantity measuring device (manufactured by Neuroscience) where movement of animals is perceived by an infrared sensor. A compound or an appropriate solvent was administered to a mouse and, after 30 minutes, a physiological saline solution or methamphetamine was administered. Behavior quantities immediately after that and until 60 minutes thereafter were measured. Difference between the behavior quantity of the methamphetamine-administered group and that of the solvent-administered group during the measuring period was defined as 100% and evaluation was conducted by expressing the inhibitory % in behavior quantity of the test-compound-administered group.

In test [3] the test system is rats. The experiment in a line: Suppressive action on pre-pulse inhibition (PPI) decreased by methamphetamine, startle reaction of rats. Format: in vivo, rat. Conditions: compound orally 1 to 10 mg/kg 30 minutes before methamphetamine 3 mg/kg, significant suppressive action on decreased PPI. The method, then:
Suppressive Action of the Compound to Pre-Pulse Inhibition which Decreases by Methamphetamine)
Investigation was also carried out in a test system of a pre-pulse inhibition where action of antipsychotic agents is able to be specifically detected. A startle reaction being stimulated by combining sonic stimulations of […] and 72 dB (pre-pulse) prior to pulse stimulation and startle reaction to sonic stimulation of 120 dB (pulse stimulation) in the presence of a back sound of 60 dB was measured using a startle reaction measuring device which perceives the body movement of rats (manufactured by San Diego Instrument). The compound of the present invention or an appropriate solvent was administered to a rat and, after 30 minutes, a physiological saline solution of 3 mg/kg of methamphetamine was administered whereupon measurement of a startle reaction was carried out. The startle reactions upon the pulse stimulation and in the presence of pre-pulse were defined as A and B, respectively and values of pre-pulse inhibition (hereinafter, referred to as PPI) were calculated from the following formula.
Method for calculation of PPI: PPI(%)=100×(A−B)/A
When a pre-treatment with methamphetamine was conducted, the startle reaction attenuated to an extent of only about 20% whereby a reduction in pre-pulse inhibition was noted. In the present model, lowering of pre-pulse inhibition by methamphetamine tends to be recovered when a compound having an mGluR1 antagonistic action was orally administered (1 to 10 mg/kg) 30 minutes before the administration of methamphetamine.

The IC50 is the concentration that inhibits the measured activity by half.

Each structure is given as a SMILES string.

T1 sequence (Q13255 19-1194): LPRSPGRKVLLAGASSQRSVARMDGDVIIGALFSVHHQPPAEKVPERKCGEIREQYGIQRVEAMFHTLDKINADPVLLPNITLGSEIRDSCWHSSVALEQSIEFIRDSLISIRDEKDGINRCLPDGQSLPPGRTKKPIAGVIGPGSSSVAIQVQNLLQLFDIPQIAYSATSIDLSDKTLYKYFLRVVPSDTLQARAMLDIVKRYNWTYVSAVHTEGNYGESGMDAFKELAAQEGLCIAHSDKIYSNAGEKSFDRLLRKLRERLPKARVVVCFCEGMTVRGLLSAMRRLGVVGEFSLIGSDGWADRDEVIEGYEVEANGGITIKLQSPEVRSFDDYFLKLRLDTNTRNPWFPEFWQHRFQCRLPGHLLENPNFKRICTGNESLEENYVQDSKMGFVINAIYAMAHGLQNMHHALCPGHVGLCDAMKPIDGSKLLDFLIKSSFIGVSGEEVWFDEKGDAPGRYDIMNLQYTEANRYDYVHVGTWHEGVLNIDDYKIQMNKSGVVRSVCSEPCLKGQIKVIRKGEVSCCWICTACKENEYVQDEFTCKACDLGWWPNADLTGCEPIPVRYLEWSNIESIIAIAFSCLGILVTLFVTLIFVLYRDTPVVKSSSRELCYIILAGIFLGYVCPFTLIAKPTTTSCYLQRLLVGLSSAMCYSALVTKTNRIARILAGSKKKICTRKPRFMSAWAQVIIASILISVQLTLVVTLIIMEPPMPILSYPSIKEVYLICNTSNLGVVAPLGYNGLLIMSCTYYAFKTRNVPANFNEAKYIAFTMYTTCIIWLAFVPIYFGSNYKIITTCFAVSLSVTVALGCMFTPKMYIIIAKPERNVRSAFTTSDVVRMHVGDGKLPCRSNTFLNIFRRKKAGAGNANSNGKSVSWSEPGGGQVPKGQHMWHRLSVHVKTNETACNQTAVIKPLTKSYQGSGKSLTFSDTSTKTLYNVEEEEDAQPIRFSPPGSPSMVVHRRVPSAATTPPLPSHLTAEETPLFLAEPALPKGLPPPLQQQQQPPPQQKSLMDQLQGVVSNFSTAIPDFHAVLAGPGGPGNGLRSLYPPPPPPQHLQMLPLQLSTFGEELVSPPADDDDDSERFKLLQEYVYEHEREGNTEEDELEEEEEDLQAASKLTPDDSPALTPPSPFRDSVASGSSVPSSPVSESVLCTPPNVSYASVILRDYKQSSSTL

In the case of `Cc1c(C2=CCN(C(=O)OC(C)C)CC2)nnn1-c1cccnc1Cl` [Example 42, Isopropyl 4-[1-(2-chloropyridin-3-yl)-5-methyl-1H-[1,2,3]-triazol-4-yl]-1,2,3,6-tetrahydropyridine-1-carboxylate], the IC50 in test [1] came out at 6.7 nM. Moreover, in test [2], the “Motility Quantity (Suppressive %)” value was above 80%. Further, the “Inhibition Effect to PPI Disorder” value in test [3] was “yes”.

In the case of `Cc1c(C2=CCN(C(=O)OC(C)C)CC2)nnn1-c1ccc(F)nc1` [Example 43, Isopropyl 4-[1-(2-fluoropyridin-5-yl)-5-methyl-1H-[1,2,3]triazol-4-yl]-1,2,3,6-tetrahydropyridine-1-carboxylate], in test [1], the IC50 was 6.8 nM. For the same compound, in test [2], the “Motility Quantity (Suppressive %)” value is reported as above 80%. Moreover, the “Inhibition Effect to PPI Disorder” value in test [3] is listed as “yes”.

Consider `Cc1c(C2=CCN(C(=O)N(C)C(C)C)CC2)nnn1-c1cccnc1F` [Example 82, 4-[1-(2-Fluoropyridin-3-yl)-5-methyl-1H-[1,2,3]-triazol-4-yl]-1,2,3,6-tetrahydropyridine-1-carboxylic acid isopropylmethylamide], for which, in test [3], the “Inhibition Effect to PPI Disorder” value was “yes”.

Turning to `Cc1c(C2=CCN(C(=O)N(C)C(C)C)CC2)nnn1-c1cccnc1Cl` [Example 84], the “Motility Quantity (Suppressive %)” value in test [2] was above 80%.

For the origin of these results see patent US7858800B2, “Biaryl derivatives” (Banyu Pharmaceutical Co., Ltd., priority 2004, dated 2010).
